From PMC5809559, “DYRK1A inhibition and cognitive rescue in a Down syndrome mouse model are induced by new fluoro-DANDY derivatives” (Scientific Reports, 2018)
Read-outs that look alike come from different tables or passages of the source.

Tests used:
KB cells = assay: KB cell proliferation / cytotoxicity (CellTiter-Blue); type: cell-based; settings: Homo sapiens, KB, 72 h, 72 h
Description: Cancer cell lines were obtained from the American Type Culture Collection (Rockville, MD, USA) and were cultured according to the supplier’s instructions. Briefly, human KB epidermal carcinoma cells were grown in Dulbecco minimal essential medium (DMEM) containing 4.5 g/L glucose supplemented with 10% fetal calf serum (FCS) and 1% glutamine, 100 UI penicillin, 100 µg/mL streptomycin and 1.5 µg/mL fungizone and maintained at 37 °C in a humidified atmosphere containing 5% CO2. Cell viability was assessed using Promega CellTiter-Blue TM reagent according to the manufacturer’s instructions. Cells were seeded in 96-well plates (5 × 10^3 cells/well) containing […]. After 24 h of culture, the cells were supplemented with […] of the studied compound dissolved in DMSO (less than 0.1% in each preparation). After 72 h of incubation, […] of resazurin was added for 2 h before recording fluorescence (λex = 560 nm, λem = 590 nm) using a Victor microtiter plate fluorimeter (Perkin-Elmer, USA).

[1] = Plasma and brain homogenate concentrations after Morris Water Maze (UHPLC-MS/MS); type: in vivo, mice; settings: for average plasma concentration: 20 mg/kg i.p. daily, after MWM; for Kp: mouse, brain, intraperitoneal, 20 mg/kg, read-out: partition coefficient at steady state (Kp = brain concentration/plasma concentration)
Description: […]. To that end, all animals were sacrificed directly after the Morris Water Maze (MWM) and plasma and brain homogenates (one hemisphere) were extracted and analyzed. […]. […] […]. However, Kp values might be underestimated due to high plasma levels that could saturate efflux transport to the brain.
All plasma and brain homogenate extracts were analyzed by an ultra-high performance liquid chromatography (UHPLC) system coupled to a triple-quadrupole mass spectrometer (Dionex Ultimate 3000 RSLC system coupled to a TSQ Vantage EMR, Thermo Scientific, Les Ulis, France). UHPLC separation was performed using a C18 column (HSS T3, 2.1 mm × 150 mm, 1.7 μm, Waters, Guyancourt, France) equipped with a guard column (HSS T3, 2.1 mm × 5 mm, 1.7 μm, Waters, Guyancourt, France) and maintained at 40 °C. The mobile phases were water, 0.1% formic acid (A) and acetonitrile (B). […]. Injection volume was 4 µL and the autosampler was maintained at 6 °C. Ionization was performed with a heated electrospray ionization source in positive mode. The source parameters were set as follows: spray voltage 3350 V, vaporizer temperature 250 °C, sheath gas (N2) pressure 55 psi, auxiliary gas pressure (N2) 25 psi, capillary temperature 350 °C. Analysis was performed under the Selected Reaction Monitoring (SRM) mode using several transitions for each compound at optimized collision energies (see Table SI2 and Figure SI1). […]. Data acquisition was performed using ThermoScientific Xcalibur 2.1 software system. All samples were analyzed in triplicate.
Two compounds, V[34] (Fig. 9) and 5d, were tested as internal standard (IS). […] Calibration curve points and quality control (QC) points were realized in spiked plasma or brain homogenate samples (Figure SI2). […]. Samples with concentrations above the upper calibration point were diluted to be in the calibration range. Limit of quantification (LOQ) was determined as the lowest point of the calibration curve at 1.6 pg/μL. QC samples were prepared at 14.5 and 58 pg/μL to validate the between-run precision (n = 3, RSD of 13% and 5%, respectively), between-run trueness was 95 and 88% respectively. […]. Limit of quantification (LOQ) was determined as the lowest point of the calibration curve at 1.6 pg/mg. QC samples were prepared at 3.2 and 22.4 pg/mg to validate the between-run precision (n = 3, RSD of 8% and 2% respectively), between-run trueness was 129 and 93% respectively.
Immediately following last day of training in the MWM, mice were sacrificed by decapitation for maximal blood collection and the brain was immediately extracted from the skull, the cerebellum removed and the hemispheres separated and frozen at −80 °C. Plasma was obtained as described above. […]. Subsequently, the IS was added to 400 µL of homogenate which was then centrifuged (12 min, 14000 × g, 4 °C). The supernatant was evaporated and transferred into 40 µL acetonitrile/methanol/water (2/2/1). After centrifugation (12 min, 14000 × g, 4 °C), 4 µL of supernatant was used for UHPLC-MS/MS analysis.

Ts65Dn mice = assay: Morris water maze spatial learning in Ts65Dn and WT mice; type: in vivo
Description: Ts65Dn mice, the best-characterized and most widely used mouse model of DS, are trisomic for a segment of chromosome 16 extending between genes Mrp139 and Znf295 and containing approximately 92 orthologues of human chromosome 21 genes[42] including the Dyrk1a gene. […] Mice were trained for a total of 5 days to learn a fixed spatial goal location in the maze. […] In this paradigm, learning occurred when mice succeeded in decreasing their traveled distances after repeated training trials.
Male Ts65Dn (n = 8) mice and euploid wild-type (WT) littermates (n = 10) were purchased from the Jackson Laboratory (Bar Harbor, Maine, USA). As the recessive retinal degeneration 1 mutation Pde6brd1 in the original Ts65Dn mice causes blindness in homozygotes, we used an alternative strain (SN 5252) that is wild-type for Pde6b, thereby preventing retinal degeneration. Housing conditions comprised a standard cage (air-controlled system) with ad libitum food and water and a 12 h light/dark cycle. Mice received at least one week of habituation to the animal facility, followed by three days of handling (three minutes per mouse per day). […] Treatment was continued during the MWM protocol (mice being injected 30 min before each daily session).
Vehicle consisted of an identical composition without compound 5a.
A white pool with a diameter of 150 cm was filled with water made opaque with non-toxic white paint (Acusol OP301, Rohm and Haas Company, Landskrone, Sweden) and kept at a constant temperature (20–21.5 °C). A 9-cm diameter platform was placed in the south-east (SE) quadrant of the pool, 1 cm under the water surface. The light intensity in the experimental room was kept constant at 70 Lux. Mice were habituated to the room for at least 30 min before starting each daily session. The acquisition phase comprised 5 days of training, four trials per day with an inter-trial interval of at least 20 min to minimize motor fatigue. The order of release positions in the pool was pseudo-randomly at the four cardinal points and changed every day to maximize spatial allocentric training and formation of a “cognitive map”. Each trial ended as soon as the mouse found the platform or after a maximum of 90 s, after which the animal was gently manually guided to the platform. Mice were left on the platform for 20 s before they were gently dried with a towel and individually placed in a cage with paper towels for further drying. The animals returned to their homecage after 5 min.
ANY-maze Video Tracking System (Stoelting, USA) was used to record all trials. Calculated measures included 1) thigmotaxis (percent distance traveled in the 10 cm wide peripheral annulus of the pool) indicative of unsuccessful spatial strategy to locate the platform and 2) the Corrected Integrated Pathway Length (CIPL) an unbiased measure of distance-to-platform travelled taking into account the animal’s speed and the initial distance from the goal for each starting position.

Oc1ccc(-c2cnc3[nH]cc(-c4ccc(F)cc4)c3c2)cc1O [Compound 5a, 3-(4-fluorophenyl)-5-(3,4-dihydroxyphenyl)-1H-pyrrolo[2,3-b]pyridine]
inhibition at 10 µM (KB cells; 10^−5 M, read-out: % Growth inhibition 10^−5 M): < 50%
inhibition at 1 µM (KB cells; 10^−6 M, read-out: % Growth inhibition 10^−6 M): 0%
average plasma concentration ([1]; Ts65Dn mice, n = 9): 0.84 ± 0.54 µM
mean brain concentration ([1]; Ts65Dn mice, n = 5, assuming vascular space 15 µL/g tissue): 6.67 ± 4.64 µM
average plasma concentration ([1]; WT mice, n = 10): 0.50 ± 0.28 µM
mean brain concentration ([1]; WT mice, n = 4, assuming vascular space 15 µL/g tissue): 6.61 ± 5.35 µM
Kp ([1]; Ts65Dn mice): 6.43 ± 3.38
Kp ([1]; WT mice): 10.8 ± 9.55
change of thigmotaxis between vehicle and 5a conditions (Ts65Dn mice; Ts65Dn mice, 20 mg/kg i.p.): −12.9%
spatial learning performance (CIPL) in Morris water maze (Ts65Dn mice; Ts65Dn mice, 20 mg/kg i.p. daily, vs vehicle, p < 0.05): significant improvement of performance
swim speed in Morris water maze (Ts65Dn mice; Ts65Dn mice, 20 mg/kg i.p., comparison with 5a-treated WT mice p > 0.99): restored normal swim speed
change of thigmotaxis between vehicle and 5a conditions (Ts65Dn mice; WT mice, 20 mg/kg i.p.): −6.5%
effect on Morris water maze performance (Ts65Dn mice; wild type mice, 20 mg/kg i.p. daily, vs vehicle): no observable effect
